# Test results published in patent publication US6723736B2, “Tricyclic compounds and uses thereof” (Theracos, Inc., priority 2000, dated 2004).
# Key:
# [1] = system: IL-10 production; assay: Inhibition of LPS-induced IL-10 production in human PBMC (ELISA); format: cell-based; conditions: human PBMC, 1, 10, 30 or 100 μM 1 hr preincubation, LPS 1 μg/ml 20 hr
# Method: (§1) Human peripheral blood mononuclear cells (PBMC) were purified from human blood using Ficoll-Paque PLUS separation medium (Amersham Pharmacia Biotech) according to the manufacturer's recommended protocol. After centrifugation, the central PBMC layer was collected, washed twice with phosphate buffered saline (PBS) and then plated in a 96-well plate at a density of 2×10^5 cells/well in RPMI-1640 medium containing 10% FBS. The cells were preincubated with dexamethasone (1 μM) or Compound B (1, 10, 30 or 100 μM) for 1 hr and then challenged with LPS (1 μg/ml) for 20 hr. Cells receiving no drug treatment, incubated with or without LPS, served as controls. The cell supernatants were collected, and the amount of IL-10 in each was measured by standard ELISA. […] To confirm that the observed decrease in IL-10 was not due to cytotoxicity, the PBMC were plated in a separate plate, incubated for 20 hr with the same range of doses of Compound B, and the cell viability was assessed by a standard MTS dye exclusion assay (4-hr incubation with MTS).
# [2] = system: TNF-alpha production; assay: Inhibition of LPS-induced TNF-alpha production in RAW264.7 cells (ELISA); format: cell-based, murine; conditions: RAW264.7, 1-100 μM compound 1 hr pre-incubation, LPS 0.1 μg/ml 6 hr
# Method: The ability of compound B to inhibit TNF-alpha production was examined in a standard in vitro model of inflammation—the murine macrophage-like cell line RAW264.7 stimulated with lipopolysaccharides (LPS). RAW264.7 cells were grown in RPMI-1640 medium containing 3% FBS and pre-incubated for 1 hr at 37° C. with varying concentrations (1, 3, 10, 30 or 100 μM) of compound B. LPS (0.1 μg/ml) was then added, and the cells were further incubated for 6 hr at 37° C. in a 5% carbon dioxide atmosphere. Cell supernatants were then collected, aliquoted, and assayed for TNF-alpha by ELISA with anti-TNF-alpha antibody.
# [3] = system: TNF-alpha induced killing of WEHI-13VAR cells; assay: Inhibition of TNF-alpha induced cell killing (MTT viability); format: cell-based, mouse
# Method: Compounds B and E were tested for their ability to inhibit TNF-alpha induced killing of cultured mouse fibrosarcoma cells. WEHI-13VAR cells were grown in buffered RPMI-1640 medium containing 3% FBS and assayed for TNF-alpha induced cell death as described by Khabar et al. (Immunol Lett 46:107-10, 1995). Cells were co-incubated for 20 hr with 100 pg/ml (FIG. 1A) or 1 pg/ml (FIG. 1B) of TNF-alpha and 100 μg/ml of berberine, compound B or compound E. Controls included cells receiving TNF-alpha but no drug, as well as cells receiving no TNF-alpha and treated with or without NP-40 lysis buffer. Cell viability was assayed using the dye MTT (3-(4,5-dimethylthiozol-2-yl)-2,5-diphenyl tetrazolium bromide) as described.
# The dose response was measured for the ability of compound B to inhibit TNF-alpha induced killing of cultured mouse fibrosarcoma cells. In this experiment, the inhibitory action of compound B was compared to that of a chimeric recombinant protein dimer containing soluble TNF receptor fused to the Fc portion of immunoglobulin heavy chain (Mohler KM et al., J Immunol 151:1548-61,1993), a known antagonist of TNF-alpha mediated cell killing. WEHI-13VAR cells were grown in buffered RPMI-1640 medium containing 3% FBS and assayed for TNF-alpha induced cell death as described by Khabar et al. (Immunol Lett 46:107-10, 1995). […]
# [4] = target: T1, COX-1 (Mus musculus, UniProt P22437); assay: Constitutive COX-1 activity in RAW264.7 cells (TXB2 EIA); format: cell-based, murine; conditions: RAW264.7, LPS 0.1 μg/ml 6 hr; higher concentrations of compound B (1-100 μM tested); dexamethasone 1 μM
# T1 construct: having no effect on the constitutively expressed COX-1 activity; endogenous in cells; host or cells: RAW264.7 cells, then lysed
# T1 sequence (P22437 27-602): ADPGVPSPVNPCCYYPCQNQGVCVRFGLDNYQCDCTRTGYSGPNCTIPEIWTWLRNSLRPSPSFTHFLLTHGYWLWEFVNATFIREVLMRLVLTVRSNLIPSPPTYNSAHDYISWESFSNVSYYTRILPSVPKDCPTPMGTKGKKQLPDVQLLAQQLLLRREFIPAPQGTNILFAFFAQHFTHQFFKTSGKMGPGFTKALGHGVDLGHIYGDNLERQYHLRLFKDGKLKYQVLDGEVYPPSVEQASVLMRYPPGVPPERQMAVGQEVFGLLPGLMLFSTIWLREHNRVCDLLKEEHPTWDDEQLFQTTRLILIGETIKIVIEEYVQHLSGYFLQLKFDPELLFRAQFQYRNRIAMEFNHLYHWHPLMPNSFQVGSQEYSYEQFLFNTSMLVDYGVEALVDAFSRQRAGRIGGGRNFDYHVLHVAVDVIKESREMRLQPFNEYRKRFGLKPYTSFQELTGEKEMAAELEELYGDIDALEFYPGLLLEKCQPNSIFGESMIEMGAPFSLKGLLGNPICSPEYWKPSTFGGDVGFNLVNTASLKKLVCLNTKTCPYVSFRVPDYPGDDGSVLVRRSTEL
# Method: (§2) In this experiment, the inhibitory effect of compound B was compared to that of dexamethasone, a potent inhibitor of COX-2 expression. RAW264.7 cells were grown in RPMI-1640 medium containing 3% FBS and pre-incubated for 1 hr at 37° C. with compound B (1, 3, 10, 30 or 100 μM), dexamethasone (Dex, 1 μM), or without drug. After 1 hr LPS (0.1 μg/ml) was added, and the cells were further incubated for 6 hr at 37° C. Control cells received neither drug nor LPS. Cells were collected, lysed and assayed for cyclooxygenase activities essentially according to the method of Brideau et al. (Inflamm Res 45:68-74, 1996). COX-2 activity was measured using the Biotrak Prostaglandin E2 (PGE2) EIA Kit, and COX-1 activity was determined using the Biotrak Thromboxane B2 (TXB2) EIA Kit, both from Amersham Pharmacia Biotech (Piscataway, N.J.).
# [5] = system: collagen-induced arthritis in male DBA/1 Lac mice; assay: Suppression of collagen-induced arthritis in mice; format: in vivo; conditions: 50 mg/kg orally daily for 17 days, compared to vehicle-treated group
# Method: The ability of compound B to reduce inflammation in an animal model of arthritis was also studied. Arthritis was induced by intradermal administration of collagen (100 μg/mice) in complete adjuvant in male DBA/1 Lac mice 7 weeks old. The booster immunization (100 μg/mice) in incomplete adjuvant was given subcutaneously on day 21. Two days later, when arthritic scores were around 1, animals were divided into two groups. One group received 50 mg/kg dose of compound B orally for 17 days daily. The second group received 10% PEG in water and was used as a vehicle-treated group. Body weight (FIG. 6, panel A), clinical score (FIG. 6, panel B), the number of joints affected (FIG. 6, panel C) and paw thickness (FIG. 6, panel D) were monitored 24 hours after drug administration during the treatment period.
# [6] = system: IL-6 production; assay: Inhibition of LPS-induced IL-6 production in RAW264.7 cells (ELISA); format: cell-based, murine; conditions: RAW264.7, 1-100 μM compound 1 hr pre-incubation, LPS 0.1 μg/ml 6 hr
# Method: The ability of compound B to inhibit IL-6 production was also examined in LPS-stimulated RAW cells. RAW264.7 cells were grown in RPMI-1640 medium containing 3% FBS and pre-incubated for 1 hr at 37° C. with varying concentrations (1, 3, 10, 30 or 100 μM) of compound B. LPS (0.1 μg/ml) was then added, and the cells were further incubated for 6 hr at 37° C. in a 5% carbon dioxide atmosphere. Cell supernatants were then collected, aliquoted, and assayed for IL-6 by ELISA with anti-IL-6 antibody.
# [7] = target: T2, COX-2 (Mus musculus, UniProt Q05769); assay: LPS-induced COX-2 activity in RAW264.7 cells (PGE2 EIA); format: cell-based, murine; conditions: RAW264.7, LPS 0.1 μg/ml 6 hr; higher concentrations of compound B (1-100 μM tested); dexamethasone 1 μM
# T2 construct: examined in LPS-stimulated RAW cells; endogenous in cells; host or cells: RAW264.7 cells, LPS-stimulated (0.1 µg/ml, 6 hr), then lysed
# T2 sequence (Q05769 18-604): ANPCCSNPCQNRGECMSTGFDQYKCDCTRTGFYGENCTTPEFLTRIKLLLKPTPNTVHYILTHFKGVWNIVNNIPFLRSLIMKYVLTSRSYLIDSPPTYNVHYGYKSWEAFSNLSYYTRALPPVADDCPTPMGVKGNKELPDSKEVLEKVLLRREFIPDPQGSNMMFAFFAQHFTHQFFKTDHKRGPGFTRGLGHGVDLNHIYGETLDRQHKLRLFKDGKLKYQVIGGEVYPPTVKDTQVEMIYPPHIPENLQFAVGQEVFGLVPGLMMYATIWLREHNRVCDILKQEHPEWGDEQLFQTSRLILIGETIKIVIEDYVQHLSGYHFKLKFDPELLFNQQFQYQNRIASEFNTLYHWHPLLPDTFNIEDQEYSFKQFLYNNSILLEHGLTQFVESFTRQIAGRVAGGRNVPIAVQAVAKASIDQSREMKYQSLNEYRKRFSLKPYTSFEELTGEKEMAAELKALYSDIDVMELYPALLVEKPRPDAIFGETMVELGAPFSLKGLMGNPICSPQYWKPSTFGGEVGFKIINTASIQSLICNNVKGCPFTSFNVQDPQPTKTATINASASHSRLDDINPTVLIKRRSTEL
# Method: as §2
# [8] = system: Human peripheral blood mononuclear cells (PBMC); assay: PBMC cell viability (MTS dye exclusion assay); format: cell-based; conditions: 20 hr, 1-100 μM
# Method: as §1
smiles,measurement,setting,value
COc1ccc(-c2ncc3c(OC)c(OC)ccc3c2O)cc1 [Compound B],inhibition of LPS-induced IL-10 production,[1],dose-dependent inhibition
same,inhibition of LPS-induced TNF-alpha production,[2],~50%
same,concentration at which the maximal inhibitory effect on TNF-alpha induced cell killing was attained,"[3]; 100 pg/ml or 50 pg/ml TNF-alpha, 20 hr, inhibition proportional to dose up to this concentration",10 µM
same,inhibition of TNF-alpha induced cell killing (increased cell viability),"[3]; 100 μg/ml compound, 100 pg/ml or 1 pg/ml TNF-alpha, 20 hr co-incubation, relative to untreated or berberine-treated cells",inhibited TNF-alpha induced cell killing
same,effect on constitutively expressed COX-1 activity,[4],no effect
same,body weight,[5],No change in body weight
same,clinical score,[5],significantly lower clinical scores
same,number of joints affected,[5],fewer joints affected
same,paw thickness,[5],reduced paw thickness
same,inhibition of LPS-induced IL-6 production,[6],up to 60%
same,effect on inducible COX-2 activity,[7],completely and selectively abrogated
same,loss in cell viability (cytotoxicity),[8],no significant loss in cell viability
